Experimental data taken from ChEMBL document CHEMBL6134848, “Deuteration Strategy-Inspired Design of Novel Diarylpyrimidine Derivatives as Potent Non-Nucleoside Reverse Transcriptase Inhibitors Featuring Improved Efficacy, Selectivity, and Druggability” (J Med Chem, 2025).

Experiments:
[1] = system: Human immunodeficiency virus 1; test: Antiviral activity against wild-type HIV-1 IIIB infected in human MT4 cells assessed as protection against virus-induced cytopathicity measured after 5 days post-infection by MTT assay; format: functional, organism-based; conditions: Human immunodeficiency virus 1, IIIB, MT4, 120 h
[2] = Selectivity index, ratio of CC50 for cytotoxicity against human MT4 cells to EC50 for antiviral activity against wild-type HIV-1 IIIB infected in human MT4 cells; format: toxicity, cell-based; conditions: read-out: Ratio CC50/EC50
[3] = system: Human immunodeficiency virus 1; test: Potency index, ratio of ETR EC50 to test compound EC50 for antiviral activity against wild-type HIV-1 IIIB infected in human MT4 cells assessed as protection against virus-induced cytopathicity measured after 5 days post-infection by MTT assay; format: functional
[4] = system: Human immunodeficiency virus 1; test: Potency index, ratio of EFV EC50 to test compound EC50 for antiviral activity against wild-type HIV-1 IIIB infected in human MT4 cells assessed as protection against virus-induced cytopathicity measured after 5 days post-infection by MTT assay; format: functional
[5] = system: Human immunodeficiency virus 1; test: Antiviral activity against drug-resistant HIV-1 harboring RT K103N mutant infected in human MT4 cells assessed as protection against virus-induced cytopathicity measured after 5 days post-infection by MTT assay; format: functional, organism-based; conditions: Human immunodeficiency virus 1, MT4, 120 h
[6] = biological target: Human immunodeficiency virus type 1 reverse transcriptase (Human immunodeficiency virus 1, UniProt Q72547); test: Inhibition of recombinant wild type HIV-1 reverse transcriptase incubated for 40 mins in presence of poly(rA) template/oligo(dT)16 primer by Pico-Green dye based analysis
Cytochrome P450 2B6 = biological target: T1, Cytochrome P450 2B6 (Homo sapiens, UniProt P20813); test: Inhibition of CYP2B6 in human liver microsomes using bupropion as substrate incubated for 15 to 45 mins by; format: ADME, Microsome
T1 sequence (P20813 whole entry): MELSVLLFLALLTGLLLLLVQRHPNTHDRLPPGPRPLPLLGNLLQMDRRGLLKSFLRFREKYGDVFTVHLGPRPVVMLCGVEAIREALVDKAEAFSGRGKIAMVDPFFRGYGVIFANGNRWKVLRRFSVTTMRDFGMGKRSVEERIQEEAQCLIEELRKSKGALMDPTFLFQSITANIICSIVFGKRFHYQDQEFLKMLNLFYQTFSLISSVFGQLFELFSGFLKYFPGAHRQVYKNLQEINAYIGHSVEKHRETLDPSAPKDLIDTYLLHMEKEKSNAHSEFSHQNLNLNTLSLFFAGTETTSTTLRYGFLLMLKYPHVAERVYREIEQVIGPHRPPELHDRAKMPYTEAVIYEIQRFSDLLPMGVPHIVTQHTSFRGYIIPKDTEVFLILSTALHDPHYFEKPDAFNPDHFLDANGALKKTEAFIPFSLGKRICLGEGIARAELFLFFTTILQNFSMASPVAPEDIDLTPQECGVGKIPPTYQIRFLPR

Cytochrome P450 2C19 = Cytochrome P450 2C19 (Homo sapiens, UniProt P33261); test: Inhibition of CYP2C19 in human liver microsomes using S-mephenytoin as substrate incubated for 15 to 45 mins by; format: ADME, Microsome
Sequence of Cytochrome P450 2C19 (P33261 whole entry): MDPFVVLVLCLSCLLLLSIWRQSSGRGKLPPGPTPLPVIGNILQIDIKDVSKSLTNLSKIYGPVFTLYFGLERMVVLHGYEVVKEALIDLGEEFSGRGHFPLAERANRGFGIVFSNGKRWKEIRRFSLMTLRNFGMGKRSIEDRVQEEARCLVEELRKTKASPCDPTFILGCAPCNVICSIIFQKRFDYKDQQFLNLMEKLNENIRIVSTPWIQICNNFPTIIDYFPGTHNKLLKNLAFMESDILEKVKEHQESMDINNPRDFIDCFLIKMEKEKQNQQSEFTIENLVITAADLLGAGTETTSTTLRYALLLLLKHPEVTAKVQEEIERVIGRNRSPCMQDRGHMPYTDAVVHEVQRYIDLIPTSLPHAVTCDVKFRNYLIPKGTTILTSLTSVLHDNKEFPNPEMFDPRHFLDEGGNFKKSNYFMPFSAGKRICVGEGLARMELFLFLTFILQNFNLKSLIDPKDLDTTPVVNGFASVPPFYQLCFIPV

Cytochrome P450 2D6 = Cytochrome P450 2D6 (Homo sapiens, UniProt P10635); test: Inhibition of CYP2D6 in human liver microsomes using dextromethorphan as substrate incubated for 15 to 45 mins by; format: ADME, Microsome
Sequence of Cytochrome P450 2D6 (P10635 whole entry): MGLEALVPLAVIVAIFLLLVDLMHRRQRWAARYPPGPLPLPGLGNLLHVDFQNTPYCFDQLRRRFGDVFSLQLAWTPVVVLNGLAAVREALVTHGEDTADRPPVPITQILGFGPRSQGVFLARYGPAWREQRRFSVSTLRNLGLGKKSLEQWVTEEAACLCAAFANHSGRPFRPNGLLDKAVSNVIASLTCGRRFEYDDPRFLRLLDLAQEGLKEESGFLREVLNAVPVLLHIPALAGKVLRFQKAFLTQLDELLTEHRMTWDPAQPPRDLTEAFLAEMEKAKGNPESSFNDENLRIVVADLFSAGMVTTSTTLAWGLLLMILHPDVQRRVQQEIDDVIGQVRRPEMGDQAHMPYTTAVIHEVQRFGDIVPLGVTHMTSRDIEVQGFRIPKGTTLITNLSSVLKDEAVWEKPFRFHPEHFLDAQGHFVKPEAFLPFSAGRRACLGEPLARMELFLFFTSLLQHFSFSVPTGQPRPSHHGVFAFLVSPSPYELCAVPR

Cytochrome P450 3A4 [7] = biological target: T2, Cytochrome P450 3A4 (Homo sapiens, UniProt P08684); test: Inhibition of CYP3A4 in human liver microsomes using midazolam as substrate incubated for 15 to 45 mins by; format: ADME, Microsome
T2 sequence (P08684 whole entry): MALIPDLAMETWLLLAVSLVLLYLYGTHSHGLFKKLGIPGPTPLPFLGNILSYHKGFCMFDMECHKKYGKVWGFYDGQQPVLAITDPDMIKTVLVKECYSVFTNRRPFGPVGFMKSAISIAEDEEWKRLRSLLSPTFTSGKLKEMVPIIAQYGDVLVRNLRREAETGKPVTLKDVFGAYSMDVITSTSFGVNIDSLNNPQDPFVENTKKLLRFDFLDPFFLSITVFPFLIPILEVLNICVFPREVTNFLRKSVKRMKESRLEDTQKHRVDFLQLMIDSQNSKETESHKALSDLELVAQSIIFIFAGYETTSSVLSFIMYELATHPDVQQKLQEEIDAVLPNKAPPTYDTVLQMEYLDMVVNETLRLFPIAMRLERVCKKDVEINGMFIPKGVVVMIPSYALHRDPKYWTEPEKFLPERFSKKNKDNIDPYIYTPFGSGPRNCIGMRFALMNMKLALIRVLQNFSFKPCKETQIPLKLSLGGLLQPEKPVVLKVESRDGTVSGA

Cytochrome P450 3A4 [8] = biological target: T2, Cytochrome P450 3A4; test: Inhibition of CYP3A4 in human liver microsomes using testosterone as substrate incubated for 15 to 45 mins by; format: ADME, Microsome
[9] = Stability in human plasma assessed as compound remaining at 1 uM measured immediately by LC-MS/MS analysis; format: ADME, cell-free; conditions: read-out: Stability
[10] = Stability in human plasma assessed as compound remaining at 1 uM measured after 0.5 hrs by LC-MS/MS analysis; format: ADME, cell-free; conditions: read-out: Stability
[11] = Stability in human plasma assessed as compound remaining at 1 uM measured after 1 hr by LC-MS/MS analysis; format: ADME, cell-free; conditions: read-out: Stability
[12] = Stability in human plasma assessed as compound remaining at 1 uM measured after 3 hrs by LC-MS/MS analysis; format: ADME, cell-free; conditions: read-out: Stability
[13] = Metabolic stability in rat liver microsomes assessed as half life at 1 uM measured up to 45 mins by LC/MS/MS analysis; format: ADME, Microsome; conditions: 0.75 h
[14] = Metabolic stability in dog liver microsomes assessed as half life at 1 uM measured up to 45 mins by LC/MS/MS analysis; format: ADME, Canis lupus familiaris, Microsome; conditions: microsomes, 0.75 h, 1 µM
[15] = Drug metabolism in dog liver microsomes assessed as metabolic fraction at 1 uM measured up to 45 mins by LC/MS/MS analysis; format: ADME, Canis lupus familiaris, Microsome; conditions: microsomes, 0.75 h, 1 µM
[16] = Stability in human liver microsomes assessed as compound remaining at […] preincubated for 30 mins in ice-water bath followed by incubation at 37 degreeC for 5 mins and further addition of NADPH/UDPGA measured 20.86 mins by LC-MS/MS analysis; format: ADME, Microsome; conditions: time 55.86 min, read-out: Stability
[17] = Protein binding in human plasma assessed as unbound fraction at 1 uM incubated for 6 hrs; format: ADME, cell-free
[18] = Half life in Sprague-Dawley rat at 1 mg/kg, iv measured for 0.083 to 24 hrs by LC-MS/MS analysis; format: ADME, organism-based; conditions: in vivo, time 0.083-24 hrs
[19] = Tmax in Sprague-Dawley rat at 1 mg/kg, iv measured for 0.083 to 24 hrs by LC-MS/MS analysis; format: ADME, organism-based; conditions: in vivo, time 0.083-24 hrs
[20] = AUC (0 to infinity) in Sprague-Dawley rat at 1 mg/kg, iv measured for 0.083 to 24 hrs by LC-MS/MS analysis; format: ADME, organism-based; conditions: in vivo, time 0.083-24 hrs
[21] = MRT (0 to t) in Sprague-Dawley rat at 1 mg/kg, iv measured for 0.083 to 24 hrs by LC-MS/MS analysis; format: ADME, organism-based; conditions: in vivo, time 0.083-24 hrs
[22] = Tmax in Sprague-Dawley rat at 10 mg/kg, po measured for 0.083 to 24 hrs by LC-MS/MS analysis; format: ADME, organism-based; conditions: in vivo, time 0.083-24 hrs
[23] = Cmax in Sprague-Dawley rat at 10 mg/kg, po measured for 0.083 to 24 hrs by LC-MS/MS analysis; format: ADME, organism-based; conditions: in vivo, time 0.083-24 hrs
[24] = AUC (0 to t) in Sprague-Dawley rat at 10 mg/kg, po measured for 0.083 to 24 hrs by LC-MS/MS analysis; format: ADME, organism-based; conditions: in vivo, time 0.083-24 hrs
[25] = AUC (0 to infinity) in Sprague-Dawley rat at 10 mg/kg, po measured for 0.083 to 24 hrs by LC-MS/MS analysis; format: ADME, organism-based; conditions: in vivo, time 0.083-24 hrs
[26] = MRT (0 to infinity) in Sprague-Dawley rat at 10 mg/kg, po measured for 0.083 to 24 hrs by LC-MS/MS analysis; format: ADME, organism-based; conditions: in vivo, time 0.083-24 hrs
[27] = Oral bioavailability in Sprague-Dawley rat at 10 mg/kg measured for 0.083 to 24 hrs by LC-MS/MS analysis; format: ADME, organism-based; conditions: in vivo, time 0.083-24 hrs
[28] = Acute toxicity in ICR mouse assessed as pathological change in heart at 2000 mg/kg, IG measured for 14 days by H and E staining based analysis; format: organism-based; conditions: in vivo, po, 336 h, time 14 day
[29] = Acute toxicity in ICR mouse assessed as pathological change in kidney at 2000 mg/kg, IG measured for 14 days by H and E staining based analysis; format: organism-based; conditions: in vivo, po, 336 h, time 14 day

[2H]C([2H])([2H])c1cc(C#N)cc(C([2H])([2H])[2H])c1Oc1nc(NC2CCN(Cc3ccc(S(N)(=O)=O)cc3)CC2)nc2ccsc12
EC50 [1]: 0.99 nM | selectivity ratio [2]: > 227000 | Ratio EC50 [3]: 3.3 | Ratio EC50 [4]: 5 | EC50 [5]: 1.13 nM | IC50 [6]: 190 nM | IC50 (Cytochrome P450 2B6): > 10 µM | IC50 (Cytochrome P450 2C19): > 10 µM | IC50 (Cytochrome P450 2D6): > 10 µM | IC50 (Cytochrome P450 3A4 [7]): > 10 µM | IC50 (Cytochrome P450 3A4 [8]): > 10 µM | remaining at 0 h, 1 µM [9]: 100% | remaining at 0.5 h, 1 µM [10]: 98.9% | remaining at 1 h, 1 µM [11]: 96.5% | remaining at 3 h, 1 µM [12]: 92.2% | t1/2 [13]: 19.2 min | t1/2 [14]: 20.4 min | Fm [15]: 17.3% | remaining at 0.347667 h [16]: 58.8% | Fu [17]: 0.453% | half-life [18]: 58.2 min | Tmax [19]: 4.8 min | AUC(0-inf) [20]: 729 ng·h/mL | MRT last [21]: 49.2 min | Tmax [22]: 30 min | Cmax [23]: 553 ng/mL | AUC(0-t) [24]: 1720 ng·h/mL | AUC(0-inf) [25]: 1800 ng·h/mL | MRT inf [26]: 2.69 h | bioavailability [27]: 29% | Activity [28]: Non-toxic | Activity [29]: Non-toxic
